Values after ≈ are worked out from the molar mass of the structure shown. Read-outs that look alike come from different tables or passages of the source. Each block holds one molecule with its values, some of them ahead of it.
Experiments:
[1] = test system: L1210 lymphatic leukemia cells; assay: cells; assay type: cell-based, murine
L1210 leukemia cells [2] = assay: cells; assay type: cell-based, murine; details: Mus musculus
L1210 leukemia cells [3] = assay: Growth inhibition of L1210 leukemia cells in vitro by nucleoside analogues (Table 7); assay type: cell-based, murine; details: Mus musculus, growth inhibition by 50%, exposure 96 h, then 72 h drug-free culture
Description: The effectiveness against growth of L1210 cells of 1 these nucleoside analogs was tested and the growth inhibition shown in Table 7.
^a Exponentially growing cells were exposed to varying drug
concentrations for 96 h at 37° C. The cells were then centrifuged,
resuspended, and cultured in drugfree medium for 72 h.
^b The drug concentration that inhibited cell growth by 50% compared
to untreated control cultures.

[4] = test system: cyclophosphamide-resistant L1210 and P-388 cell-lines; details: cited from earlier work
KBM-3/DOX = assay: cells; assay type: cell-based, human; details: human, kbm-3/dox cells
KBM-3/AMSA = assay: cells; assay type: cell-based, human; details: human, kbm-3/amsa cells
[5] = test system: GM-CFC from normal human bone marrow

Structure (SMILES): CC(=O)OC(CCOP(=O)(NCCCl)NCCCl)OC(C)=O [Compound 22-F, 0-(3,3-Diacetatopropyl)-N-(2-chloroethyl)-N-(2chloroethyl)phosphorodiamide]
toxicity to L1210 cells, comparison in words [1]: much more potent than ASTA Z 7557
IC50 ([1]; Mus musculus, L1210, 72 h, read-out: ED50): 1.7 µg/mL (≈ 4.48 µM)

Structure (SMILES): COc1cccc2c1C(=O)c1c(O)c3c(c(O)c1C2=O)C[C@@](O)(C(=O)CO)C[C@@H]3O[C@H]1C[C@H](NP(=O)(NCCCl)OCCC(OC(C)=O)OC(C)=O)[C@H](O)[C@H](C)O1 (stereo partly drawn) [Compound C-3]
IC50 (L1210 leukemia cells [2]): 21 nM

Structure (SMILES): COc1cccc2c1C(=O)c1c(O)c3c(c(O)c1C2=O)C[C@@](O)(C(C)=O)C[C@@H]3O[C@H]1C[C@H](NP(=O)(NCCCl)OCCC(OC(C)=O)OC(C)=O)[C@H](O)[C@H](C)O1 (stereo partly drawn) [Compound C-4]
IC50 (L1210 leukemia cells [2]): 25 nM

Structure (SMILES): COc1cccc2c1C(=O)c1c(O)c3c(c(O)c1C2=O)C[C@@](O)(C(=O)CO)C[C@@H]3O[C@H]1C[C@H](NP(=O)(NCCCl)OCCC(OC(=O)C(C)(C)C)OC(=O)C(C)(C)C)[C@H](O)[C@H](C)O1 (stereo partly drawn) [Compound C-7]
IC50 (L1210 leukemia cells [2]): 35 nM

Structure (SMILES): COc1cccc2c1C(=O)c1c(O)c3c(c(O)c1C2=O)C[C@@](O)(C(C)=O)C[C@@H]3O[C@H]1C[C@H](NP(=O)(NCCCl)OCCC(OC(=O)C(C)(C)C)OC(=O)C(C)(C)C)[C@H](O)[C@H](C)O1 (stereo partly drawn) [Compound C-8]
IC50 (L1210 leukemia cells [2]): 30 nM

IC50 (L1210 leukemia cells [3]): 1400 nM
Structure (SMILES): CC(=O)OC(CCOP(N)(=O)OC[C@@H]1CC[C@H](n2ccc(=O)[nH]c2=O)O1)OC(C)=O (stereo partly drawn) [Compound D-1]

IC50 (L1210 leukemia cells [3]): 700 nM
Structure (SMILES): CC(C)(C)C(=O)OC(CCOP(N)(=O)OC[C@@H]1CC[C@H](n2ccc(=O)[nH]c2=O)O1)OC(=O)C(C)(C)C (stereo partly drawn) [Compound D-2]

IC50 (L1210 leukemia cells [3]): 1300 nM
Structure (SMILES): CC(=O)OC(CCOP(N)(=O)OC[C@@H]1CC[C@H](n2cc(C)c(=O)[nH]c2=O)O1)OC(C)=O (stereo partly drawn) [Compound D-3]

IC50 (L1210 leukemia cells [3]): 1600 nM
Structure (SMILES): Cc1cn([C@H]2CC[C@@H](COP(N)(=O)OCCC(OC(=O)C(C)(C)C)OC(=O)C(C)(C)C)O2)c(=O)[nH]c1=O (stereo partly drawn) [Compound D-4]

Structure (SMILES): N#CN [cyanamide]
effect on cytotoxicity of 4-hydroperoxycyclophosphamide and ASTA Z 7557 [4]: potentiate the cytotoxicity

Structure (SMILES): CCN(CC)C(=S)S [diethyl dithiocarbamate]
effect on cytotoxicity of 4-hydroperoxycyclophosphamide and ASTA Z 7557 ([4]; cyclophosphamide-resistant L1210 and P-388): potentiate the cytotoxicity

Structure (SMILES): CCN(CC)C(=S)SSC(=S)N(CC)CC [disulfiram]
effect on cytotoxicity of 4-hydroperoxycyclophosphamide and ASTA Z 7557 [4]: potentiate the cytotoxicity
sensitization of resistant L1210 cell-line [4]: rendered drug-sensitive

Structure (SMILES): COc1cccc2c1C(=O)c1c(O)c3c(c(O)c1C2=O)C[C@@](O)(C(=O)CO)C[C@@H]3O[C@H]1C[C@H](N)[C@H](O)[C@H](C)O1 [doxorubicin, reference compound]
resistance of subline to doxorubicin (KBM-3/DOX): 100 fold

Structure (SMILES): CCOP(=O)(CCC=O)c1ccccc1 (stereo not drawn) [ethylphenyl(2-formylethyl) phosphinate]
effect on cytotoxicity of 4-hydroperoxycyclophosphamide and ASTA Z 7557 [4]: potentiate the cytotoxicity

Structure (SMILES): COc1cc(NS(C)(=O)=O)ccc1Nc1c2ccccc2nc2ccccc12 [m-AMSA, 4'-(9-acridinylamino)-3-methanesulfon-m-amisidide, reference compound]
resistance of subline to m-AMSA (KBM-3/AMSA): 130 fold
GM-CFC recovery kinetics / progenitor sparing, in words [5]: nonselective killing of mature (GM-CFC) and primitive (pluripotent) myeloid progenitor cells

— US5055459A, “Selective elimination of malignant cells from bone marrow by bis (acyloxy) propylphosphoramidates” (Board of Regents, The University of Texas, priority 1989, dated 1991)
